Reference: patent US20100061969A1, “DIETARY SUPPLEMENT, ANTI-FATIGUE AGENT OR PHYSICAL ENDURANCE ENHANCER, FUNCTIONAL FOOD, OR COSMETIC” (ASAHI KASEI PHARMA CORPORATION, priority 2006, published 2010)

Tests used:
[1] = system: male Slc:ddY mice; assay: Test of anti-fatigue effect and physical endurance-enhancing effect (forced swimming with weight); format: in vivo, mouse; conditions: weight 8.5% of body weight
From the text: The following method can determine whether the functional food, or anti-fatigue agent and/or physical endurance enhancer, which contains the composition of the present invention, has an anti-fatigue effect or not and physical endurance-enhancing effect or not. That is, the effect of the present invention can be determined as follows: after preliminarily feeding, attaching a weight, which is equivalent to 8.5% of the body weight of each mouse, to each mouse in a group subjected to forced oral administration with an anti-fatigue agent containing the composition of the present invention (administered group) and to each mouse in a group administered with no agent (non-administration group) three weeks after administration; forcing the mice to swim; measuring a time until the head (nose) of each mouse completely sinks in water for 7 seconds due to distress; and comparing the results between the administered group and the non-administration group.
Six-week-old male Slc:ddY mice (Charles river laboratories Japan, Inc.) were preliminarily fed for 7 days and divided into four groups each including 10 mice.
The groups include: the group administered with water (control); the group administered with oxidized coenzyme Q10 at 50 mg/kg/day (Comparative Example 1, group administered with only CoQ10); the group administered with phosphatidylinositol at 100 mg/kg/day (Comparative Example 2, group administered with only phosphatidylinositol); and the group administered with oxidized coenzyme Q10 at 50 mg/kg/day and phosphatidylinositol at 100 mg/kg/day at the same time (Test Example, group administered with CoQ10+phosphatidylinositol), and forced oral administration was performed under the above-mentioned administration conditions five days a week. Three weeks after the administration, a weight was attached to each mouse (the weight is 8.5% of the body weight of the mouse), and the mouse was forced to swim. Then, a time until the head (nose) of the mouse completely sank for 7 seconds due to distress was measured. Note that, the oxidized coenzyme Q10 and phosphatidylinositol in Test Example were simultaneously administered.

[2] = Coenzyme Q10 concentration in blood after forced oral administration (HPLC of plasma); format: in vivo, rat; conditions: rats; for Average value of total CoQ10 concentration in blood: group = 1 week pre-administration
Description: Seven-week-old male Slc:SD rats were preliminarily fed for 7 days, and forced oral administration (repeated oral administration) was performed for 4 rats with phosphatidylinositol at 100 mg/kg/day for 1 week. Then, forced oral administration was performed with phosphatidylinositol at 100 mg/kg/day and oxidized coenzyme Q10 at 100 mg/kg/day at the same time (PI-administered group). 0, 2, 4, and 6 hours after the forced oral administration with both phosphatidylinositol and coenzyme Q10, the whole blood was collected from the postcaval vein using heparinized injection needles and syringes under diethyl ether anesthesia. Collected blood was immediately centrifuged (4° C., 3,000 rpm, 10 minutes) to separate plasma. The separated plasma samples were used for an analysis of coenzyme Q10 by HPLC. As comparative examples, the above-mentioned procedures were performed for the group which was subjected to forced oral administration (repeated oral administration) with soybean lecithin at 500 mg/kg/day (100 mg/kg/day in terms of phosphatidylinositol) instead of phosphatidylinositol for 1 week and then to forced oral administration with both phosphatidylinositol at 100 mg/kg/day and oxidized coenzyme Q10 at 100 mg/kg/day at the same time (soybean lecithin-administered group), and the group which was subjected to forced oral administration with both phosphatidylinositol at 100 mg/kg/day and oxidized coenzyme Q10 at 100 mg/kg/day simultaneously without preliminary administration of phosphatidylinositol (PI non-administration group).

[3] = Week 3, forced oral administration five days a week

Compound | Swimming time (average) ([1]; Week 0, 10 mice per group) [s] | Swimming time (average) [1, 3] [s] | Average value of total CoQ10 concentration in blood ([2]; 0 hr after oral PI 100 mg/kg + oxidized CoQ10 100 mg/kg) [nM] | Average value of total CoQ10 concentration in blood ([2]; 2 hr after oral PI 100 mg/kg + oxidized CoQ10 100 mg/kg) | Average value of total CoQ10 concentration in blood ([2]; 4 hr after oral PI 100 mg/kg + oxidized CoQ10 100 mg/kg) | Average value of total CoQ10 concentration in blood ([2]; 6 hr after oral PI 100 mg/kg + oxidized CoQ10 100 mg/kg) [nM] | coenzyme Q10 concentrations in blood compared with the PI non-administration group ([2]; 1 week pre-administration)
phosphatidylinositol | 212 | 333 | 70 | 1,983 nM | 1,927 nM | 686 | higher
COC1=C(OC)C(=O)C(C/C=C(\C)CC/C=C(\C)CC/C=C(\C)CC/C=C(\C)CC/C=C(\C)CC/C=C(\C)CC/C=C(\C)CC/C=C(\C)CC/C=C(\C)CCC=C(C)C)=C(C)C1=O [CoQ10, oxidized coenzyme Q10, reference compound] | 214 | 358 |  |  |  |  | 
